Reference: US3981814A, “Bacteriostatic substituted benzanilide compositions and methods for their use” (Givaudan Corporation, priority 1975, dated 1976)
In brackets after ≈: the same amount, converted by molar mass.

Experiments:
[1] = Solubility in alcohol and other solvents; type: physicochemical
Staphylococcus aureus = experiment: In vitro soap bacteriostatic test (agar dilution, spot inoculation, 35°, 48 hours); type: cell-based; conditions: for MIC: Staphylococcus aureus, without soap, read-out: Compound Activity Without Soap: minimum concentration where S. aureus growth is completely inhibited; for Compound Activity With Soap: minimum concentration where S. aureus growth is completely inhibited: ratio of soap to compound 100:1
Description: The antibacterial properties of the compounds prepared in Examples 1 - 14 were tested in soap. The in vitro soap bacteriostatic tests were conducted as follows: The compound is dissolved in a suitable solvent, usually dimethylformamide, to give a 6% solution. One-half ml. aliquot was added to 100 ml. of 3% solution of bar soap stock solution. The solid soap used was a neutral white toilet soap of the "LUX" type. The fatty acids in this soap were of the following composition: This yields an aqueous soap solution containing 30,000 mcg./ml. soap and 300 mcg./ml. compound. The soap/compound ratio in the latter is 100/l. A two-fold serial dilution series is prepared with this solution using sterile distilled water in test tubes such that the final volume in each tube is 2.0 ml. To each test tube is added 28 ml. of molten Dextrose Trypticase Extract Agar (B.B.L.). The tube contents were poured into sterile Petri plates and allowed to harden. The highest final concentration of compound in the serial dilution series is 20 mcg./ml. Plates were spot inoculated with a broth culture of Staphylococcus aureus and incubated at 35° for 48 hours. The lowest concentration completely inhibiting growth of the test organism, in mcg./ml. is recorded as the bacteriostatic concentration of the compound. Tests in the absence of soap are made in a similar manner except that all dilutions are made in solvent. The final concentration in the agar should not be greater than 5%. The results of these tests with the compounds of the present invention as compared with compounds having chemical structures closely related to the compounds of the present invention (designated by the symbol "C") are set forth in the Table. Column 1 contains the data as to the activity of the test solution without soap; column 2 refers to tests in which the ratio of soap to compound is 100:1. […] Growth is observed at the next lower concentration.

in vivo = conditions: rat, determined in rats, oral toxicity
Source text: For example, 4-chloro-3', 5'-di(trifluoromethyl)-benzanilide has an LD50 of […], determined in rats.

O=C(Nc1ccc(Br)c(C(F)(F)F)c1)c1ccc(Br)cc1 [Compound 13, 4,4'-dibromo-α,α,α-trifluoro-m-benzotoluidide]
solubility in alcohol solvents [1]: soluble or fairly soluble | MIC (Staphylococcus aureus): 1.25 µg/mL (≈ 2.95 µM) | Compound Activity With Soap: minimum concentration where S. aureus growth is completely inhibited (Staphylococcus aureus): 0.312 µg/mL

O=C(Nc1cc(C(F)(F)F)cc(C(F)(F)F)c1)c1ccc(Cl)cc1 [Compound 19, 4-chloro-3',5'-di(trifluoromethyl)-benzanilide]
LD50 (in vivo): 6000 mg/kg | solubility in alcohol solvents [1]: soluble or fairly soluble | MIC (Staphylococcus aureus): 0.625 µg/mL (≈ 1.7 µM) | Compound Activity With Soap: minimum concentration where S. aureus growth is completely inhibited (Staphylococcus aureus): 0.312 µg/mL

O=C(Nc1ccc(C(F)(F)F)cc1)c1ccc(F)cc1 [Compound C10]
MIC (Staphylococcus aureus): 20 µg/mL (≈ 70.6 µM) | Compound Activity With Soap: minimum concentration where S. aureus growth is completely inhibited (Staphylococcus aureus): 5.0 µg/mL

O=C(Nc1ccc(Cl)c(C(F)(F)F)c1)c1ccccc1Cl [Compound C12]
MIC (Staphylococcus aureus): > 20 µg/mL | Compound Activity With Soap: minimum concentration where S. aureus growth is completely inhibited (Staphylococcus aureus): 10.0 µg/mL

O=C(Nc1ccc(Cl)cc1C(F)(F)F)c1cccc(Cl)c1 [Compound C21]
MIC (Staphylococcus aureus): > 10 µg/mL | Compound Activity With Soap: minimum concentration where S. aureus growth is completely inhibited (Staphylococcus aureus): B (Inactive at 10 mcg./ml. (highest concentration tested))

O=C(Nc1ccc(Cl)c(Cl)c1)c1ccc(C(F)(F)F)cc1 [Compound C38]
MIC (Staphylococcus aureus): > 20 µg/mL | Compound Activity With Soap: minimum concentration where S. aureus growth is completely inhibited (Staphylococcus aureus): 10.0 µg/mL

O=C(Nc1ccc(C(F)(F)F)cc1)c1ccc(Cl)cc1 [Compound C9]
MIC (Staphylococcus aureus): > 10 µg/mL | Compound Activity With Soap: minimum concentration where S. aureus growth is completely inhibited (Staphylococcus aureus): B (Inactive at 10 mcg./ml. (highest concentration tested))

O=C(Nc1ccc(Cl)c(C(F)(F)F)c1)c1cccc(Cl)c1 [Compound 9, 3,4'-dichloro-α,α,α-trifluoro-m-benzo-toluidide]
MIC (Staphylococcus aureus): > 20 µg/mL | Compound Activity With Soap: minimum concentration where S. aureus growth is completely inhibited (Staphylococcus aureus): 0.625 µg/mL

O=C(Nc1ccc(Br)c(C(F)(F)F)c1)c1ccc(Cl)cc1 [Compound 15, 4'-bromo-4-chloro-α,α,α-trifluoro-m-benzotoluidide]
MIC (Staphylococcus aureus): 0.625 µg/mL (≈ 1.65 µM) | Compound Activity With Soap: minimum concentration where S. aureus growth is completely inhibited (Staphylococcus aureus): 0.625 µg/mL

O=C(Nc1ccc(Br)c(C(F)(F)F)c1)c1ccc(Cl)c(Cl)c1 [Compound 16, 4'-bromo-3,4-dichloro-α,α,α-trifluoro-m-benzotoluidide]
MIC (Staphylococcus aureus): > 20 µg/mL | Compound Activity With Soap: minimum concentration where S. aureus growth is completely inhibited (Staphylococcus aureus): 0.312 µg/mL

O=C(Nc1cccc(C(F)(F)F)c1)c1ccc(Br)cc1 [Compound 3]
MIC (Staphylococcus aureus): > 20 µg/mL | Compound Activity With Soap: minimum concentration where S. aureus growth is completely inhibited (Staphylococcus aureus): 2.5 µg/mL

O=C(Nc1cccc(C(F)(F)F)c1)c1ccc(Cl)cc1 [Compound 1, 4-Chloro-3'-(trifluoromethyl) benzanilide]
MIC (Staphylococcus aureus): 10 µg/mL (≈ 33.4 µM) | Compound Activity With Soap: minimum concentration where S. aureus growth is completely inhibited (Staphylococcus aureus): 0.625 µg/mL

O=C(Nc1cccc(Cl)c1)c1ccc(Cl)cc1 [Compound C30]
MIC (Staphylococcus aureus): > 20 µg/mL | Compound Activity With Soap: minimum concentration where S. aureus growth is completely inhibited (Staphylococcus aureus): 5.0 µg/mL

O=C(Nc1cc(C(F)(F)F)cc(C(F)(F)F)c1)c1ccc(Br)cc1 [Compound 20, 4-bromo-α,α,α,α',α',α' -hexafluorobenzo-3',5'-xylidide]
solubility in alcohol solvents [1]: soluble or fairly soluble | MIC (Staphylococcus aureus): 0.312 µg/mL (≈ 0.757 µM) | Compound Activity With Soap: minimum concentration where S. aureus growth is completely inhibited (Staphylococcus aureus): 0.312 µg/mL

O=C(Nc1cc(C(F)(F)F)cc(C(F)(F)F)c1)c1ccc(Cl)c(Cl)c1 [Compound 21, 3,4-dichloro-α,α,α,α',α',α'-hexafluorobenzo-3',5'-xylidide]
MIC (Staphylococcus aureus): > 20 µg/mL | Compound Activity With Soap: minimum concentration where S. aureus growth is completely inhibited (Staphylococcus aureus): 0.312 µg/mL

O=C(Nc1ccc(Cl)c(Cl)c1)c1ccc(Cl)cc1 [Compound C31]
MIC (Staphylococcus aureus): > 20 µg/mL | Compound Activity With Soap: minimum concentration where S. aureus growth is completely inhibited (Staphylococcus aureus): 10.0 µg/mL

O=C(Nc1cc(C(F)(F)F)cc(C(F)(F)F)c1)c1cccc(Br)c1 [Compound C29]
MIC (Staphylococcus aureus): > 10 µg/mL | Compound Activity With Soap: minimum concentration where S. aureus growth is completely inhibited (Staphylococcus aureus): B (Inactive at 10 mcg./ml. (highest concentration tested))

O=C(Nc1ccc(F)c(C(F)(F)F)c1)c1ccc(Cl)cc1 [Compound 17, 4-chloro-α,α,α, 4'-tetrafluoro-m-benzotoluidide]
MIC (Staphylococcus aureus): > 20 µg/mL | Compound Activity With Soap: minimum concentration where S. aureus growth is completely inhibited (Staphylococcus aureus): 1.25 µg/mL

O=C(Nc1cc(C(F)(F)F)ccc1Cl)c1ccc(Cl)cc1 [Compound C15]
MIC (Staphylococcus aureus): > 10 µg/mL | Compound Activity With Soap: minimum concentration where S. aureus growth is completely inhibited (Staphylococcus aureus): B (Inactive at 10 mcg./ml. (highest concentration tested))

O=C(Nc1cccc(C(F)(F)F)c1)c1cccc(Cl)c1 [Compound 2]
MIC (Staphylococcus aureus): > 20 µg/mL | Compound Activity With Soap: minimum concentration where S. aureus growth is completely inhibited (Staphylococcus aureus): 2.5 µg/mL

N#CSc1ccc(NC(=O)c2ccc(Cl)c(Cl)c2)cc1C(F)(F)F [Compound C24]
MIC (Staphylococcus aureus): > 10 µg/mL | Compound Activity With Soap: minimum concentration where S. aureus growth is completely inhibited (Staphylococcus aureus): B (Inactive at 10 mcg./ml. (highest concentration tested))

O=C(Nc1cccc(Cl)c1)c1ccc(Cl)c(Cl)c1 [Compound C34]
MIC (Staphylococcus aureus): > 20 µg/mL | Compound Activity With Soap: minimum concentration where S. aureus growth is completely inhibited (Staphylococcus aureus): A (Inactive at 20 mcg./ml. (highest concentration tested))

O=C(Nc1ccc(Cl)cc1C(F)(F)F)c1ccc(Cl)cc1 [Compound C20]
MIC (Staphylococcus aureus): > 10 µg/mL | Compound Activity With Soap: minimum concentration where S. aureus growth is completely inhibited (Staphylococcus aureus): B (Inactive at 10 mcg./ml. (highest concentration tested))
